The text below walks through data of BindingDB's records for doi:10.1016/s0960-894x(01)00011-7 (Institute, 2001).

A short description of the first experiment: Inhibitory activity against non-nucleoside reverse transcriptase inhibitors (NNRTI) -resistant HIV-1 strain A17 with a Y181C mutation in RT (reverse transcriptase).
In general, IC50 refers to the concentration at which inhibition is half-maximal. Low values mean greater potency, high ones weaker potency. `S=C(NCCC1=CCCCC1)Nc1nccs1` [1-(2-Cyclohex-1-enyl-ethyl)-3-thiazol-2-yl-thiourea]: the IC50 was determined as 900 nM.

Turning to `S=C(NCc1ccco1)Nc1nccs1` [1-Furan-2-ylmethyl-3-thiazol-2-yl-thiourea], the IC50 stood at 2000 nM.

Turning to `S=C(NCC12CC3CC(CC(C3)C1)C2)Nc1nccs1` [1-Adamantan-1-ylmethyl-3-thiazol-2-yl-thiourea], 600 nM corresponded to half-maximal inhibition (IC50).

`Cc1ccc(CCNC(=S)Nc2nccs2)cc1` [1-Thiazol-2-yl-3-(2-p-tolyl-ethyl)-thiourea] yielded an IC50 of 3900 nM.

Take `S=C(NCCOc1ccccc1)Nc1nccs1` [1-(2-Phenoxy-ethyl)-3-thiazol-2-yl-thiourea]: inhibition was half-maximal at 4400 nM (IC50).

In turn, `S=C(NCCc1c[nH]c2ccccc12)Nc1nccs1` [1-[2-(1H-Indol-3-yl)-ethyl]-3-thiazol-2-yl-thiourea] returned an IC50 of 2200 nM.

Another experiment is described as follows: Inhibitory activity against non-nucleoside reverse transcriptase inhibitors (NNRTI) -resistant HIV-1 strain A17 with a Y181C mutation in reverse transcriptase.
In turn, `S=C(NCCc1cccs1)Nc1nccs1` [1-Thiazol-2-yl-3-(2-thiophen-2-yl-ethyl)-thiourea] gave an IC50 of more than 100 µM.

A short description of a further experiment: Inhibitory activity against non-nucleoside reverse transcriptase inhibitors (NNRTI) -resistant HIV-1 strain A17 with a Y181C mutation in RT (reverse transcriptase). The source holds these as a separate data set.
`Oc1ccc(CCNC(=S)Nc2ccc(Br)cn2)cc1` [1-(5-Bromo-pyridin-2-yl)-3-[2-(4-hydroxy-phenyl)-ethyl]-thiourea] gave an IC50 of 70 nM.

`S=C(NCCc1cccs1)Nc1ccc(Br)cn1` [1-(5-Bromo-pyridin-2-yl)-3-(2-thiophen-2-yl-ethyl)-thiourea] had an IC50 of 48 nM.

Consider `CCC(NC(=S)Nc1nccs1)c1ccccc1` (stereo not given) [1-(1-Phenyl-propyl)-3-thiazol-2-yl-thiourea], for which inhibition was half-maximal at 2100 nM (IC50).
